Test results as given in US10703751B2, “Amino-imidazopyridine derivatives as Janus kinase inhibitors and pharmaceutical use thereof” (LEO Pharma A/S, priority 2017, dated 2020).
Where two headings read alike, the source gives them in different places.

Key:
JAK1 = JAK1 (Homo sapiens (Human), UniProt P23458); experiment: JAK1 kinase assay (HTRF); type: biochemical; conditions: for JAK2/JAK1 ratio / JAK3/JAK1 ratio: ratio of the respective EC50
Description: (§1) Human baculovirus-expressed Janus kinase (JAK) 1, 2, 3 and tyrosin kinase (TYK) 2 were purchased from Carna Biosciences, Inc (#08-144, -045, -046, -147 resp.). All four purified enzymes contain only the catalytic domain. JAK1 (aa 850-1154) and TYK2 (aa 871-1187) are expressed with an N-terminally fused GST-tag, and JAK2 and JAK3 with an N-terminally fused His-tag. Inhibition of phosphorylation of a synthetic peptide was measured in an HTRF-based assay (CisBio #62TKOPEC). First, 75 nL of test compound solution (100% DMSO) was added to a white shallow 384-well plate (NUNC #264706) using a Labcyte ECHO 550 liquid handler. Thereafter, 1 μL of compound dilution buffer (50 mM HEPES, 0.05% bovine serum albumin) and 2 μL of TK solution (TK substrate-biotin in kinase buffer [1× enzymatic buffer from HTRFKinEASE TK kit, 1 mM DTT]) was added. Then, 5 μL kinase-ATP mix (prepared in kinase buffer) was added to the wells and the plates were incubated at RT for 20 (JAK2, 3 and TYK2) to 40 (JAK1) min. For all four kinases a concentration of ATP that corresponded to the Km for ATP was used. The final concentrations of buffers, substrate, kinase and ATP were: JAK1: 50 mM Hepes buffer pH 7.0, 0.01% BSA, 10 mM MgCl2, 1 mM DTT, 7 μM ATP, 50 nM SEB, 1 μM TK Substrate-Biotin and 5 ng/well JAK1; JAK2: 50 mM Hepes buffer pH 7.0, 0.01% BSA, 5 mM MgCl2, 1 mM DTT, 4 μM ATP, 1 μM TK Substrate-Biotin and 0.1 ng/well JAK2; JAK3: 50 mM Hepes buffer pH 7.0, 0.01% BSA, 5 mM MgCl2, 1 mM DTT, 2 μM ATP, 1 μM TK Substrate-Biotin and 0.3 ng/well JAK3; TYK2: 50 mM Hepes buffer pH 7.0, 0.01% BSA, 5 mM MgCl2, 1 mM DTT, 13 μM ATP, 50 nM SEB, 1 μM TK Substrate-Biotin and 0.8 ng/well TYK2. Thereafter, the kinase reaction was stopped by adding 4 μL detection mix (final concentrations: 50 mM Hepes buffer pH 7.0, 0.01% BSA, 0.8 M KF, 20 mM EDTA, 42 nM Streptavidin-XL665 and 1:400 STK Ab Cryptate) and the plates were incubated overnight in the dark. A PerkinElmer Envision reader was used to quantify the HTRF signal using the following filters; 320 nm excitation filter, 665 nm emission filter and a 615 nm 2nd emission filter. A ratio ((665/615)×10^4) was calculated for each well.

JAK3 = JAK3 (Homo sapiens (Human), UniProt P52333); experiment: JAK3 kinase assay (HTRF); type: biochemical
Description: as §1

JAK2 = JAK2 (Homo sapiens (Human), UniProt O60674); experiment: JAK2 kinase assay (HTRF); type: biochemical; conditions: ATP at Km (4 μM)
Description: as §1

TYK2 = TYK2 (Homo sapiens (Human), UniProt P29597); experiment: TYK2 kinase assay (HTRF); type: biochemical
Description: as §1

STAT6 bla-RA1 cells = experiment: STAT6 assay (IL-4 stimulated reporter cells); type: cell-based; conditions: for EC50: interleukin 4 10 ng/mL; for STAT5/STAT6 EC50 ratio (selectivity for STAT6 over STAT5): selectivity for STAT6 over STAT5, from EC50
Description: Twenty-five μL of a STAT6 bla-RA1 (Invitrogen # K1243) cell suspension was seeded with a density of 30-40,000 cells/well in 384-well Black View-plates (PerkinElmer #6007460) with clear bottom in assay medium (Opti-MEM (Invitrogen #11058-021)+0.5% heat inactivated fetal bovine Serum (Invitrogen #10082-147)+1% non-essential amino acids (Invitrogen #11140-050)+1% sodium pyruvate (Invitrogen #11360-070)+1% penicillin/streptomycin (Invitrogen #15140-122)); containing 550 ng/mL of CD40 ligand (Invitrogen # PHP0025). The cell plates were incubated overnight in a humidified 37° C. air/CO2 (95%/5%) incubator. The following day, 125 nL of solutions of test compounds and reference compounds were transferred to cell plates using the Labcyte Echo 550 liquid handler. The plates were then incubated for 1 h in a humidified 37° C. air/CO2 (95%/5%) incubator. Hereafter recombinant human interleukin 4 (Invitrogen # PHC0045) were added to the plates also using the Labcyte Echo 550 to a final concentration of 10 ng/mL. The cells were then incubated for 4½-5 h in a humidified 37° C. air/CO2 (95%/5%) incubator. 8 μL of LiveBLAzer substrate mixture (Invitrogen # K1095) were then added to the assay plates, which were incubated overnight at RT. Fluorescence was then measured: Excitation: 405 nm; Emission: 460 nm (green channel), Emission: 535 nm (blue channel). Background was subtracted in both emission channels and the ratio 460/535 nm was calculated for each well.

STAT5 irfl-bla TF1 cells = experiment: STAT5 assay (EPO stimulated reporter cells); type: cell-based; conditions: Homo sapiens, TF-1; erythropoietin (EPO) 10 ng/mL
Description: Twenty-five μL of a STAT5 irfl-bla TF1 (Invitrogen # K1219) cell suspension was seeded with a density of about 10,000 cells/well in 384-well Black View-plates (PerkinElmer #6007460) with clear bottom in assay medium (Opti-MEM (Invitrogen #11058-021)+0.5% heat inactivated fetal bovine Serum (Invitrogen #10082-147)+1% non-essential amino acids (Invitrogen #11140-050)+1% sodium pyruvate (Invitrogen #11360-070)+1% penicillin/streptomycin (Invitrogen #15140-122)). The cell plates were incubated overnight in a humidified 37° C. air/CO2 (95%/5%) incubator. The following day, 125 nL of solutions of test compounds and reference compounds were transferred to cell plates using the Labcyte Echo 550 liquid handler. The plates were then incubated for 1 h in a humidified 37° C. air/CO2 (95%/5%) incubator. Hereafter recombinant human erythropoietin (EPO) (Invitrogen # PHC9634) was added to the plates also using the Labcyte Echo 550 to a final concentration of 10 ng/mL. The cells were then incubated for 4½-5 h in a humidified 37° C. air/CO2 (95%/5%) incubator. 8 μL of LiveBLAzer substrate mixture (Invitrogen # K1095) were then added to the assay plates, which were then incubated overnight at RT. Fluorescence was then measured: Excitation: 405 nm; Emission: 460 nm (green channel), Emission: 535 nm (blue channel). Background was subtracted in both emission channels and the ratio 460/535 nm was calculated for each well.

Chain of JAK1 (P23458 850-1154): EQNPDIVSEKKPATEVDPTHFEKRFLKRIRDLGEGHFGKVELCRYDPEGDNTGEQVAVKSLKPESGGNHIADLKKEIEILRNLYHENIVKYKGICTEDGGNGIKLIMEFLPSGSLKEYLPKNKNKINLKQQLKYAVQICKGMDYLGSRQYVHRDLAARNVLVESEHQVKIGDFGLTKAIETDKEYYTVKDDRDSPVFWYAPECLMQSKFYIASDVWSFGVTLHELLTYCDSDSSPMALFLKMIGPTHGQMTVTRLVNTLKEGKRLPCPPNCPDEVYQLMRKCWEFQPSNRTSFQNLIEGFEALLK
Chain of JAK3 (P52333 822-1111): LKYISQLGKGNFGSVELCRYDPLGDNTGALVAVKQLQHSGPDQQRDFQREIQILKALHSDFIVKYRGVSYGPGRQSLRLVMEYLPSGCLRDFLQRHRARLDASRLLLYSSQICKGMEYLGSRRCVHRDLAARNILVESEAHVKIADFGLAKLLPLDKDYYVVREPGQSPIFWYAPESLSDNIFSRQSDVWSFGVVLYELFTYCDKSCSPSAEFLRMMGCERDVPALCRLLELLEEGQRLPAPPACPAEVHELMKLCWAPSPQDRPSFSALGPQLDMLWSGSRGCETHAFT
Chain of JAK2 (O60674 849-1124): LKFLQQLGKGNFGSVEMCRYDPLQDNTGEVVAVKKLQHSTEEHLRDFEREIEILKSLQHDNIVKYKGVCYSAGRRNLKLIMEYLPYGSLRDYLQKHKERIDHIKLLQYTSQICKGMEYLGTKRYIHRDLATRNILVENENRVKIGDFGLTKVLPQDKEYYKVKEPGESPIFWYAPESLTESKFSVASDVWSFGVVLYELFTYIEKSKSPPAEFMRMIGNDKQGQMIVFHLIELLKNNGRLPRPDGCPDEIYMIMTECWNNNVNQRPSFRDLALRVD
Chain of TYK2 (P29597 871-1187): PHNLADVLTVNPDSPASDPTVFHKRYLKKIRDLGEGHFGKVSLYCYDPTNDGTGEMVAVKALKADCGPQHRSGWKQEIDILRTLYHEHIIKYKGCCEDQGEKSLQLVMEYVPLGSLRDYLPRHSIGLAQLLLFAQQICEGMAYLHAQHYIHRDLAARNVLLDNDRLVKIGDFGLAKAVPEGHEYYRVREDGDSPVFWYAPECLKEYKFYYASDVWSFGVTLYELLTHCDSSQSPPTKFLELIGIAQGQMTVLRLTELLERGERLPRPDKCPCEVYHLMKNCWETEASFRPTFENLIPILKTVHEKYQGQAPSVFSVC

Row | SMILES | EC50 (JAK1; ATP at Km (7 μM)) [nM] | JAK2/JAK1 ratio (JAK1) | JAK3/JAK1 ratio (JAK1) | EC50 (JAK3; ATP at Km (2 μM)) [nM] | EC50 (JAK2) [nM] | EC50 (TYK2; ATP at Km (13 μM)) [nM] | EC50 (STAT6 bla-RA1 cells) [nM] | STAT5/STAT6 EC50 ratio (selectivity for STAT6 over STAT5) (STAT6 bla-RA1 cells) | EC50 (STAT5 irfl-bla TF1 cells) [nM] | EC50 (JAK1) [nM] | EC50 (JAK3) [nM] | EC50 (TYK2) [nM]
1 | CNc1cc2c(cn1)nc(C(C)O)n2[C@H]1CC[C@@H](CC#N)CC1 (stereo partly drawn) [Example 6, cis-2-[4-[2-[1-Hydroxyethyl]-6-(methylamino)imidazo[4,5-c]pyridin-1-yl]cyclohexyl]acetonitrile] | 508 | 5.2 | 5.6 | 2870 | 2640 | 1110 | 8570 | >5.8 | > 49800 |  |  | 
2 | CNc1cc2c(cn1)nc([C@@H](C)O)n2[C@H]1CC[C@@H](CC#N)CC1 [Example 7, cis-2-[4-[2-[(1R)-1-Hydroxyethyl]-6-(methylamino)imidazo[4,5-c]pyridin-1-yl]cyclohexyl]acetonitrile] | 129 | 7.6 | 7.8 | 1010 | 981 | 443 | 3460 | >14 | > 49800 |  |  | 
3 | [2H]C([2H])([2H])Nc1cc2c(cn1)nc([C@@H](C)O)n2[C@H]1CC[C@H](CC#N)CC1 [Example 4, trans-2-[4-[2-[(1R)-1-Hydroxyethyl]-6-(trideuteriomethylamino)imidazo[4,5-c]pyridin-1-yl]cyclohexyl]acetonitrile] |  | 44 | 668 |  | 153 |  | 141 | 50 | 7080 | 3.46 | 2310 | 43
4 | [2H]C([2H])([2H])C([2H])(O)c1nc2cnc(NC)cc2n1[C@H]1CC[C@H](CC#N)CC1 (stereo partly drawn) [Example 5, trans-2-[4-[2-[1,2,2,2-Tetradeuterio-1-hydroxyethyl]-6-(methylamino)imidazo[4,5-c]pyridin-1-yl]cyclohexyl]acetonitrile] |  | 36 | 380 |  | 301 |  | 270 | 34 | 9240 | 8.41 | 3200 | 102
5 | CNc1cc2c(cn1)nc(C(C)O)n2[C@H]1CC[C@H](CC#N)CC1 (stereo partly drawn) [Example 1, trans-2-[4-[2-[1-Hydroxyethyl]-6-(methylamino)imidazo[4,5-c]pyridin-1-yl]cyclohexyl]acetonitrile] | 10.8 | 49 | 487 | 5260 | 530 | 111 | 237 | 62 | 14600 |  |  | 
6 | CNc1cc2c(cn1)nc([C@H](C)O)n2[C@H]1CC[C@H](CC#N)CC1 [Example 2, trans-2-[4-[2-[(1S)-1-Hydroxyethyl]-6-(methylamino)imidazo[4,5-c]pyridin-1-yl]cyclo-hexyl]acetonitrile] |  | 25 | 221 |  | 1130 |  | 1160 | >37 | > 42600 | 44.4 | 9820 | 466
